Laboratory results taken from paper PMC9571049 (Molecules, 2022).
Like-named read-outs stand apart in the source and are kept apart here.

Legend:
[1] = molecular target: H1N1 NA (A/PuertoRico/8/1934) (Influenza A virus, UniProt P03468); assay: biochemical
[2] = molecular target: H5N1 NA (A/Goose/Guangdong/SH7/2013) (Influenza A virus, UniProt V5P6N1); type: biochemical
[3] = tested on: A/Goose/Guangdong/SH7/2013 (H5N1); assay: microbe, parasite or virus in culture; type: cell-based; conditions: read-out: EC50 towards influenza virus H5N1
[4] = tested on: A/Goose/Jiangsu/1306/2014 (H5N8); assay: microbe, parasite or virus in culture; type: cell-based; conditions: read-out: EC50 towards influenza virus H5N8
A/PR/8/34 (H1N1) = assay: microbe, parasite or virus in culture; type: cell-based; conditions: read-out: EC50 towards influenza virus H1N1
A/Wisconsin/67/05 (H3N2) = assay: microbe, parasite or virus in culture; type: cell-based; conditions: read-out: EC50 towards influenza virus H3N2
Kunming mice = conditions: mouse, in vivo
in vitro [5] = conditions: chicken
in vitro [6] = conditions: dog
N1, H5N1 = conditions: cited from earlier work

## CCC(CC)O[C@@H]1C=C(C(=O)O)C[C@H](NCc2ccc(OCc3ccccc3B(O)O)cc2)[C@H]1NC(C)=O [Compound 1c, (3R,4R,5S)-4-acetamido-5-((4-((2-boronobenzyl)oxy)benzyl)amino)-3-(pentan-3-yloxy)cyclohex-1-ene-1-carboxylic acid]
[1]
  IC50: 690 ± 130 nM
other
  melting point: 146.3 to 150.5 °C (dec.)

## CCC(CC)O[C@@H]1C=C(C(=O)O)C[C@H](NCc2ccc(OCc3cccc(B(O)O)c3)cc2)[C@H]1NC(C)=O [Compound 2c, (3R,4R,5S)-4-acetamido-5-((4-((3-boronobenzyl)oxy)benzyl)amino)-3-(pentan-3-yloxy)cyclohex-1-ene-1-carboxylic acid]
[1]
  IC50: 60 ± 7 nM
[2]
  fold lower potency than OSC against H5N1 in the enzymatic assay: 3.9 fold
[3]; Influenza A virus, H5N1, CEF
  EC50: 690 ± 91 nM
[4]; Influenza A virus, H5N8, CEF
  EC50: 1570 ± 210 nM
A/PR/8/34 (H1N1); Influenza A virus, MDCK
  EC50: 30 ± 30 nM
A/Wisconsin/67/05 (H3N2); Influenza A virus, H3N2, MDCK
  EC50: 11100 ± 1150 nM
Kunming mice
  behavior abnormalities (lethargy, clonic convulsions, anorexia, ruffled fur): no significant behavior abnormalities
  body weight: increased gradually
  death: no death occurred
Kunming mice; 1000 mg/kg
  acute toxicity: no acute toxicity
In vitro [5]
  CC50: 143000 ± 9560 nM
In vitro [6]
  CC50: > 250000 nM

## CCC(CC)O[C@@H]1C=C(C(=O)O)C[C@H](NCc2ccc(OCc3ccc(B(O)O)cc3)cc2)[C@H]1NC(C)=O [Compound 3c, (3R,4R,5S)-4-acetamido-5-((4-((4-boronobenzyl)oxy)benzyl)amino)-3-(pentan-3-yloxy)cyclohex-1-ene-1-carboxylic acid]
[1]
  IC50: 45 ± 6.7 nM
[3]; Influenza A virus, H5N1, CEF
  EC50: 3200 ± 440 nM
[4]; Influenza A virus, H5N8, CEF
  EC50: 2510 ± 230 nM
A/PR/8/34 (H1N1); Influenza A virus, MDCK
  EC50: 20 ± 10 nM
A/Wisconsin/67/05 (H3N2); Influenza A virus, H3N2, MDCK
  EC50: 3080 ± 590 nM
other
  melting point: 168.3 to 172.1 °C (dec.)
In vitro [5]
  CC50: 289000 ± 15800 nM
In vitro [6]
  CC50: > 250000 nM

## CCC(CC)O[C@@H]1C=C(C(=O)O)C[C@H](NCc2ccc(OCc3ccccc3C(=O)O)cc2)[C@H]1NC(C)=O [Compound 4c, 2-((4-((((1S,5R,6R)-6-acetamido-3-carboxy-5-(pentan-3-yloxy)cyclohex-3-en-1-yl)amino)methyl)phenoxy)methyl)benzoic acid]
[1]
  IC50: 15000 ± 880 nM
other
  melting point: 177.1 to 178.9 °C

## CCC(CC)O[C@@H]1C=C(C(=O)O)C[C@H](NCc2ccc(OCc3cccc(C(=O)O)c3)cc2)[C@H]1NC(C)=O [Compound 5c, 3-((4-((((1S,5R,6R)-6-acetamido-3-carboxy-5-(pentan-3-yloxy)cyclohex-3-en-1-yl)amino)methyl)phenoxy)methyl)benzoic acid]
[1]
  IC50: 390 ± 40 nM

## CCC(CC)O[C@@H]1C=C(C(=O)O)C[C@H](NCc2ccc(OCc3ccc(C(=O)O)cc3)cc2)[C@H]1NC(C)=O [Compound 6c, 4-((4-((((1S,5R,6R)-6-acetamido-3-carboxy-5-(pentan-3-yloxy)cyclohex-3-en-1-yl)amino)methyl)phenoxy)methyl)benzoic acid]
[1]
  IC50: 600 ± 130 nM
other
  melting point: 193.3 to 195.5 °C (dec.)

## CCC(CC)O[C@@H]1C=C(C(=O)O)C[C@H](NCc2ccc(OCc3cc(C(=O)O)ccc3OC)cc2)[C@H]1NC(C)=O [Compound 7c, 3-((4-((((1S,5R,6R)-6-acetamido-3-carboxy-5-(pentan-3-yloxy)cyclohex-3-en-1-yl)amino)methyl)phenoxy)methyl)-4-methoxybenzoic acid]
[1]
  IC50: 14000 ± 930 nM

## CCC(CC)O[C@@H]1C=C(C(=O)O)C[C@H](NCc2ccc(OCc3ccc(C(=O)O)cc3Cl)cc2)[C@H]1NC(C)=O [Compound 8c, 4-((4-((((1S,5R,6R)-6-acetamido-3-carboxy-5-(pentan-3-yloxy)cyclohex-3-en-1-yl)amino)methyl)phenoxy)methyl)-3-chlorobenzoic acid]
[1]
  IC50: 250 ± 31 nM
other
  melting point: 189.3 to 192.1 °C (dec.)

## CCC(CC)O[C@@H]1C=C(C(=O)O)C[C@H](NCc2ccc(OCc3ccc(C(=O)O)cc3OC)cc2)[C@H]1NC(C)=O [Compound 9c, 4-((4-((((1S,5R,6R)-6-acetamido-3-carboxy-5-(pentan-3-yloxy)cyclohex-3-en-1-yl)amino)methyl)phenoxy)methyl)-3-methoxybenzoic acid]
[1]
  IC50: 3210 ± 380 nM
other
  melting point: 171.2 to 175.7 °C (dec.)

## CCC(CC)O[C@@H]1C=C(C(=O)O)C[C@H](NCc2ccc(OCc3ccc(C(=O)O)c(OC)c3)cc2)[C@H]1NC(C)=O [Compound 10c, 4-((4-((((1S,5R,6R)-6-acetamido-3-carboxy-5-(pentan-3-yloxy)cyclohex-3-en-1-yl)amino)methyl)phenoxy)methyl)-2-methoxybenzoic acid]
[1]
  IC50: 3590 ± 25 nM
other
  melting point: 190.5 to 195.1 °C (dec.)

## CCC(CC)O[C@@H]1C=C(C(=O)O)C[C@H](NCc2ccc(OCc3ccccc3[N+](=O)[O-])cc2)[C@H]1NC(C)=O [Compound 11c, (3R,4R,5S)-4-acetamido-5-((4-((2-nitrobenzyl)oxy)benzyl)amino)-3-(pentan-3-yloxy)cyclohex-1-ene-1-carboxylic acid]
[1]
  IC50: 1160 ± 110 nM
other
  melting point: 150.8 to 152.7 °C

## CCC(CC)O[C@@H]1C=C(C(=O)O)C[C@H](NCc2ccc(OCc3cccc([N+](=O)[O-])c3)cc2)[C@H]1NC(C)=O [Compound 12c, (3R,4R,5S)-4-acetamido-5-((4-((3-nitrobenzyl)oxy)benzyl)amino)-3-(pentan-3-yloxy)cyclohex-1-ene-1-carboxylic acid]
[1]
  IC50: 170 ± 6.8 nM

## CCC(CC)O[C@@H]1C=C(C(=O)O)C[C@H](NCc2ccc(OCc3ccc([N+](=O)[O-])cc3)cc2)[C@H]1NC(C)=O [Compound 13c, (3R,4R,5S)-4-acetamido-5-((4-((4-nitrobenzyl)oxy)benzyl)amino)-3-(pentan-3-yloxy)cyclohex-1-ene-1-carboxylic acid]
[1]
  IC50: 500 ± 63 nM
other
  melting point: 184.1 to 187.5 °C (dec.)

## CCC(CC)O[C@@H]1C=C(C(=O)O)C[C@H](NCc2ccc(OCc3cccc(C(N)=O)c3)cc2)[C@H]1NC(C)=O [Compound 14c, (3R,4R,5S)-4-acetamido-5-((4-((3-carbamoylbenzyl)oxy)benzyl)amino)-3-(pentan-3-yloxy)cyclohex-1-ene-1-carboxylic acid]
[1]
  IC50: 11 ± 1.3 nM
[3]; Influenza A virus, H5N1, CEF
  EC50: 1180 ± 170 nM
[4]; Influenza A virus, H5N8, CEF
  EC50: 2800 ± 460 nM
A/PR/8/34 (H1N1); Influenza A virus, MDCK
  EC50: 210 ± 20 nM
A/Wisconsin/67/05 (H3N2); Influenza A virus, H3N2, MDCK
  EC50: > 100000 nM
In vitro [5]
  CC50: 291000 ± 17900 nM
In vitro [6]
  CC50: > 250000 nM

## CCC(CC)O[C@@H]1C=C(C(=O)O)C[C@H](NCc2ccc(OCc3ccc(C(N)=O)cc3)cc2)[C@H]1NC(C)=O [Compound 15c, (3R,4R,5S)-4-acetamido-5-((4-((4-carbamoylbenzyl)oxy)benzyl)amino)-3-(pentan-3-yloxy)cyclohex-1-ene-1-carboxylic acid]
[1]
  IC50: 1730 ± 290 nM

## CCC(CC)O[C@@H]1C=C(C(=O)O)C[C@H](NCc2ccc(OCc3cccc(S(N)(=O)=O)c3)cc2)[C@H]1NC(C)=O [Compound 16c, (3R,4R,5S)-4-acetamido-3-(pentan-3-yloxy)-5-((4-((3-sulfamoylbenzyl)oxy)benzyl)amino)cyclohex-1-ene-1-carboxylic acid]
[1]
  IC50: 900 ± 130 nM
other
  melting point: 193.2 to 198.1 °C (dec.)

## CCC(CC)O[C@@H]1C=C(C(=O)O)C[C@H](NCc2ccc(OCc3ccc(S(N)(=O)=O)cc3)cc2)[C@H]1NC(C)=O [Compound 17c, (3R,4R,5S)-4-acetamido-3-(pentan-3-yloxy)-5-((4-((4-sulfamoylbenzyl)oxy)benzyl)amino)cyclohex-1-ene-1-carboxylic acid]
[1]
  IC50: 27 ± 4.8 nM

## CCC(CC)O[C@@H]1C=C(C(=O)O)C[C@H](NCc2ccc(OCc3ccc(S(=O)(=O)O)cc3)cc2)[C@H]1NC(C)=O [Compound 18c, (3R,4R,5S)-4-acetamido-3-(pentan-3-yloxy)-5-((4-((4-sulfobenzyl)oxy)benzyl)amino)cyclohex-1-ene-1-carboxylic acid]
[1]
  IC50: 1640 ± 120 nM
other
  melting point: 244.5 to 248.7 °C (dec.)

## CCC(CC)OC1C=C(C(=O)O)CC(NCc2ccc(-c3ccccc3)cc2)C1NC(C)=O (stereo not drawn) [JMC20I]
N1, H5N1
  IC50: 1.9 nM

## CCC(CC)OC1C=C(C(=O)O)CC(NCc2ccc(Sc3cccs3)cc2)C1NC(C)=O (stereo not drawn) [JMC21g]
N1, H5N1
  IC50: 3.83 nM

## CCC(CC)OC1C=C(C(=O)O)CC(NCc2ccc(Sc3ccccc3)cc2)C1NC(C)=O (stereo not drawn) [JMC21h]
N1, H5N1
  IC50: 0.96 nM

## CCC(CC)O[C@@H]1C=C(C(=O)O)C[C@H](NCc2ccc3sc4ccccc4c3c2)[C@H]1NC(C)=O [JMC23d]
N1, H5N1
  IC50: 0.27 nM

## CCC(CC)OC1C=C(C(=O)O)CC(NCc2ccc(-c3cccs3)cc2)C1NC(C)=O (stereo not drawn) [JMC32]
N1, H5N1
  IC50: 2.1 nM

## CCC(CC)O[C@@H]1C=C(C(=O)O)C[C@H](N)[C@H]1NC(C)=O [OSC, oseltamivir carboxylate, reference compound]
[3]
  EC50: 760 ± 66 nM
[4]
  EC50: 2010 ± 61 nM
A/PR/8/34 (H1N1)
  EC50: […]
A/Wisconsin/67/05 (H3N2)
  EC50: 360 ± 160 nM
In vitro [5]
  CC50: 201000 ± 4050 nM
In vitro [6]
  CC50: > 250000 nM

## CC(=O)N[C@H]1[C@H]([C@H](O)[C@H](O)CO)OC(C(=O)O)=C[C@@H]1N=C(N)N [Zanamivir (ZAN), zanamivir, reference compound]
A/PR/8/34 (H1N1); Influenza A virus, MDCK
  EC50: […]
A/Wisconsin/67/05 (H3N2); Influenza A virus, H3N2, MDCK
  EC50: 270 ± 30 nM
In vitro [6]
  CC50: > 250000 nM
